The text below walks through data of patent US20230167068A1, “BENZOPYRAZOLE COMPOUND” (MEDSHINE DISCOVERY INC., priority 2019, published 2023).

Assay [1] concerns hMMP-1 promoter reporter gene in Hela cells (GR transcription repression). As to the kind of experiment: hMMP1 transcription repression activity, luciferase reporter gene screening system (hMMP1 GR transcription repression test). The class given is cell-based. The conditions noted are these: Homo sapiens; for Emax: HeLa, maximum effect value, positive control 1000 nM dexamethasone, read-out: TR (hMMP1 transcription inhibition activity) Effect; for IC50: absolute IC50, HeLa hMMP-1/luciferase cells, 10 nM PMA, 18 h, max concentration 1000 nM, read-out: TR (hMMP1 transcription inhibition activity) IC50. An excerpt:
Human MMP-1 promoter region (containing two AP-1 binding sites and two PEA3 sites, a total of 249bp, GenBank catalog #AF023338) was cloned into the upstream of luciferase reporter gene. The hMMP-1 promoter reporter gene was constructed and transfected into Hela cells so that luciferase production could be easily detected. A stable recombinant hMMP-⅟luciferase cell line was used for the development and validation of this experiment.
• [0377] 1) All the culture media were carefully aspirated, and the cell layer was rinsed gently with an appropriate amount of DPBS, and then aspirated. • [0378] 2) An appropriate amount of 0.05% Typsine EDTA was added and incubated in a CO2 incubator for 3-5 minutes to digest the cells. • [0379] 3) The cells were resuspended with an appropriate amount of cell culture medium. • [0380] 4) The required amount of cells were calculated. The cell concentration was 5x10^3 cells/well. • [0381] 5) The cell suspension was diluted with appropriate cell culture medium. • [0382] 6) The cell suspension was dispensed into a disposable sterile loading slot. • [0383] 7) Inoculated 30µL per well into a 384-well plate. • [0384] 8) The cell plate was placed in a 37° C. 5% CO2 incubator for 18-24 hours.
The final DMSO concentration was 0.1%. PMA needs to be protected from light during use.
hMMP1 GR transcription repression activity test • [0395] 1) Inoculated cells: Fresh cells were inoculated into 384 white experimental plates at 5x10^3 cells/30µL/well, and incubated in a 5% CO2 incubator at 37° C. for 24 hours. • [0396] 2) Compound preparation: The compound plate was prepared before the experiment, and the reference compound (dexamethasone) and the tested compound of 10x concentration were prepared. Finally, the experimental plate of 10× concentration compound was obtained. • [0397] 3) Added compound: 3.3 µL of 10x compound was transferred with Bravo and added to cell plate. Incubated for 18 hours in a 5% CO2 incubator at 37° C. • [0398] 4) 30 µL of Bright-Glo fluorescent detection reagent was transferred to the cell plate. • [0399] 5) Centrifugal incubation for 2 minutes. • [0400] 6) The fluorescence value was measured with the Envision plate reader.
Positive Control: 10 nM PMA + 1000 nM dexamethasone (0.1% DMSO)
Negative control: 10 nM PMA (0.1% DMSO)
Test compound: Maximum concentration of 1000 nM, 4-fold dilution, 10 wells in total, repeated.
Dexamethasone: Maximum concentration of 1000 nM, 4-fold dilution, 10 wells in total, repeated.
The graphing software GraphPad Prism5 was used to create the concentration curves of the test compounds and calculate the IC50 values.

The test system of assay [2] is human peripheral blood mononuclear cells TNF-α. As to the kind of experiment: Repression of TNF-α in human peripheral blood mononuclear cells (LPS, ELISA). Type of assay: cell-based. The conditions noted are these: PBMC, 3-fold diluted; for IC50: read-out: hPBMC IC50; for Emax: maximum effect value. Here is the method: Experimental purpose: To express the anti-inflammatory activity of the test compound at the cellular level according to the level of TNF-α in human peripheral blood mononuclear cells (hPBMC).
• [0488] 1) The frozen cells were quickly thawed by continuous stirring in a 37° C. water bath. • [0489] 2) 25 mL of fresh pre-heated thawed culture medium was added to a 50 mL centrifuge tube. Then the cells were added gently, drop by drop. • [0490] 3) Cells were centrifuged at 2000 rpm for 10 min (ascending speed: 9, descending speed: 1). • [0491] 4) The supernatant was discarded and the cell particles were resuspended in 25 mL of freshly pre-heated RPMI 1640 culture medium.
• [0493] 5) After thawing and resuscitating the suspended cells, the number of cells was counted and the total number of cells required for the experiment was calculated. • [0494] 6) The cell suspension was diluted with an appropriate volume of cell culture medium. • [0495] 7) The cell suspension was poured into a sterile disposable container. • [0496] 8) 100,000 cells/(100 µL) of cell suspension was transferred to each well of a 96-well plate. • [0497] 9) The cell plates were placed in humidified air, 5% CO2 incubator, 37° C. for 2 hours.
[…] In the second step, the serum-free culture medium was diluted 125 times, and the concentration of DMSO was 0.8%. Then 16.8 µL of the compound diluted in culture medium was transferred to a 100 µL cell plate, and the concentration of DMSO was 0.114%.
After adding the compound, the cell plates were incubated in a 37° C. 5% CO2 incubator for 1 hour.
In the first step, LPS was diluted with ultrapure water to a storage concentration of 1 mg/mL. In the second step, the storage concentration of LPS was diluted to 1 µg/mL in serum-free culture medium. In the third step, serum-free culture medium was 1666.666-fold diluted. Then 16.8 µL of LPS that has been diluted with culture medium was transferred to a 116.8 µL cell plate. At this time, the final concentration of DMSO was 0.1%. After adding LPS, the cell plate was put into a 37° C., 5% CO2 incubator and incubated for 18 hours.
• [0505] 1. The TNF-α antibody was diluted to 1× in the coating solution, and then 100 µL per well was added to a 96-well high-binding performance plate, and the plate was sealed with a membrane and placed at 4° C. for 18 hours. • [0506] 2. 2000 mL of wash buffer was prepared to 1x for later use.
• [0508] 3. After the plate was coated overnight, the coating solution was poured out and washed 3 times with 300 µL of washing buffer per well. • [0509] 4. After the plate was washed, 200 µL of sealing buffer was added to each well, and the plate was sealed with membrane. Incubated for one hour in a 25° C. incubator. • [0510] 5. The cell plates incubated for 18 hours were placed in a centrifuge for centrifugation, temperature: 25° C., speed: 2000 rpm, time: 10 min, ascending speed: 9, descending speed: 1. After centrifugation, 100 µL of cell supernatant from each well was transferred to a 3599 cell plate, and then placed in a 4° C. refrigerator for later use. • [0511] 6. The cell supernatant was diluted 40 times with sealing buffer and placed in a 4° C. refrigerator for later use, and the standard was also placed in a 4° C. refrigerator for later use. • [0512] 7. After the sealing was completed, the sealing solution was poured out and washed three times with 300 µL of washing buffer per well. • [0513] 8. The diluted cell supernatant samples and standards were added to the ELISA plate, and the plate was sealed with membrane. Then incubated for 2 hours in a 25° C. incubator. • [0514] 9. The liquid in the plate was poured out and washed 5 times with 300 µL of washing buffer per well. • [0515] 10. Antibodies were prepared and 100 µL was added to each well and the plate was sealed with sealing membrane. Then incubated for one hour in a 25° C. incubator. • [0516] 11. The liquid in the plate was poured out and washed 7 times with 300 µL of washing buffer per well. • [0517] 12. […]
(In general: In an ELISA, binding on a coated surface is turned into a signal by an enzyme label.)

Setting [3] is: absolute IC50, test Top concentration 1000 nM, 8 concentration (*).
The mark [4] stands for this setting: test Top concentration 1000 nM, 8 concentration (*).
The mark [5] stands for this setting: absolute IC50, test Top concentration 10000 nM, 8 concentration (unmarked).
The mark [6] stands for this setting: test Top concentration 10000 nM, 8 concentration (unmarked).
Where [7] appears, read: absolute IC50, test Top concentration 100 nM, 8 concentration (***).
Where [8] appears, read: test Top concentration 100 nM, 8 concentration (***).

Where two headings read alike, the source gives them in different places.

As usually defined, the IC50 is the concentration that gives 50% inhibition.

Consider `C[C@H](NC(=O)C(C)(F)F)[C@H](Oc1ccc2c(cnn2-c2ccc3nnnn3c2)c1)c1cc(F)cc(F)c1` [WX035], for which the Emax was found to be 94.6% in assay [1] and 100% in assay [2] (setting [4]). Besides, the IC50 in assay [1] stood at 2.15 nM; in assay [2] (setting [3]), 11.6 nM.
`C[C@H](NC(=O)C(C)(F)F)[C@H](Oc1ccc2c(cnn2-c2cn(C)nn2)c1)c1cc(F)cc(F)c1` [WX051]: the Emax worked out at 95.4% in assay [1] and 74.9% in assay [2] (test Top concentration 500 nM, 8 concentration (**)). For the same compound, the IC50 in assay [1] is 3.45 nM; in assay [2] (absolute IC50, test Top concentration 500 nM, 8 concentration (**)), 10.4 nM.
In the case of `CC(C)[C@H](NC(=O)C(C)(F)F)[C@H](Oc1ccc2c(cnn2-c2ccc3nncn3c2)c1)c1cc(F)cc(F)c1` [WX017], the Emax in assay [1] came out at 86%; in assay [2] (setting [6]), 83.1%. Also, the IC50 in assay [1] is 0.9 nM; in assay [2] (setting [5]), 7.63 nM.
With `CC(C)[C@H](NC(=O)C(C)(F)F)[C@H](Oc1ccc2c(cnn2-c2ccc3nccn3c2)c1)c1ccccc1` [WX004], the Emax in assay [1] came to 78.8%; in assay [2] (setting [4]), 78.5%. In addition, the IC50 is 3.58 nM in assay [1] and 15.9 nM in assay [2] (setting [3]).
On to `C[C@H](NC(=O)C(C)(F)F)[C@H](Oc1ccc2c(cnn2-c2ccc3nccn3c2)c1)c1cc(F)cc(F)c1` [WX003], for which the values for the Emax in assay [1] and in assay [2] (setting [8]) were 95.1% and 84.3%, respectively. The IC50 in assay [1] is 0.08 nM; in assay [2] (setting [7]), 0.97 nM.
The corresponding values for `C[C@H](NC(=O)C(C)(F)F)[C@H](Oc1ccc2c(cnn2-c2ccc3nncn3c2)c1)c1cc(F)cc(F)c1` [WX019] are 94.8%, 90%, 0.171 nM and 0.98 nM.
As for `CC(C)[C@H](NC(=O)C(C)(F)F)[C@H](Oc1ccc2c(cnn2-c2ccc3nncn3c2)c1)c1ccccc1` [WX018], the results for the Emax in assay [1] and in assay [2] (setting [4]) were 83.7% and 69.3%, respectively. Also, the IC50 in assay [1] came to 6.1 nM; in assay [2] (setting [3]), 18.6 nM.
In the same order, the values of `C[C@H](NC(=O)C(C)(F)F)[C@H](Oc1ccc2c(cnn2-c2cnn(C)c2)c1)c1ccccc1` [WX043] are 93.3%, 88.8%, 1.21 nM and 4.9 nM.
In the same order, the values of `C[C@H](NC(=O)C(C)(F)F)[C@H](Oc1ccc2c(cnn2-c2ccc3ncnn3c2)c1)c1cc(F)cc(F)c1` [WX034] are 97.1%, 79.3%, 3.22 nM and 12.6 nM.
Consider `C[C@H](NC(=O)C(C)(F)F)[C@H](Oc1ccc2c(cnn2-c2ccc3c(c2)CCCO3)c1)c1cc(F)cc(F)c1` [WX002], for which the Emax in assay [1] turned out to be 100%; in assay [2] (setting [6]) it was 84.6%. Also, the IC50 in assay [1] turned out to be 0.318 nM; in assay [2] (setting [5]), 15.1 nM.
